According to US20250230149A1, “MGLUR5 MODULATING COMPOUNDS, COMPOSITIONS, AND METHODS OF USE” (Allyx Therapeutics, Inc., priority 2022, published 2025):

Key:
Assay type in all cases: in vitro ADME
P-glycoprotein (P-gp) = molecular target: T1, P-glycoprotein (P-gp) (Homo sapiens, UniProt P08183); assay: In vitro inhibition of human transporter P-gp; conditions: in vitro cell test system; read-out: IC50, inhibition of probe substrate transport via P-gp
T1 construct: host or cells: unspecified cell test systems
Description: (§1) The in vitro potential for Compound 1 Form A to be an inhibitor of the human transporters P-glycoprotein (P-gp), […] (OATP) 1B1 and OATP1B3 was assessed in various in vitro cell test systems, and of BSEP in membrane vesicles.
(§2) A decrease in the transporter-mediated activity of probe substrate in the presence of a positive control inhibitor, determined from incubations run alongside test compound, confirmed that the in vitro test systems were capable of identifying transporter inhibitors.

OATP1B1 = molecular target: T2, OATP1B1 (Homo sapiens, UniProt Q9Y6L6); assay: In vitro inhibition of human transporter OATP1B1; conditions: in vitro cell test system; read-out: IC50, inhibition of probe substrate transport via OATP1B1
T2 construct: host or cells: unspecified cell test systems
Description: as §1, §2

OATP1B3 = molecular target: T3, OATP1B3 (Homo sapiens, UniProt Q9NPD5); assay: In vitro inhibition of human transporter OATP1B3; conditions: in vitro cell test system; read-out: IC50, inhibition of probe substrate transport via OATP1B3
T3 construct: host or cells: unspecified cell test systems
Description: as §1, §2

BSEP = BSEP (Homo sapiens, UniProt O95342); assay: In vitro inhibition of BSEP in membrane vesicles; conditions: read-out: IC50, inhibition of probe substrate transport via BSEP
Description: as §1, §2

CYP1A2 [1] = molecular target: T4, CYP1A2 (Homo sapiens, UniProt P05177); assay: CYP450 reaction phenotyping in Supersomes, CYP1A2
T4 construct: purchased
T4 sequence (P05177 1-516): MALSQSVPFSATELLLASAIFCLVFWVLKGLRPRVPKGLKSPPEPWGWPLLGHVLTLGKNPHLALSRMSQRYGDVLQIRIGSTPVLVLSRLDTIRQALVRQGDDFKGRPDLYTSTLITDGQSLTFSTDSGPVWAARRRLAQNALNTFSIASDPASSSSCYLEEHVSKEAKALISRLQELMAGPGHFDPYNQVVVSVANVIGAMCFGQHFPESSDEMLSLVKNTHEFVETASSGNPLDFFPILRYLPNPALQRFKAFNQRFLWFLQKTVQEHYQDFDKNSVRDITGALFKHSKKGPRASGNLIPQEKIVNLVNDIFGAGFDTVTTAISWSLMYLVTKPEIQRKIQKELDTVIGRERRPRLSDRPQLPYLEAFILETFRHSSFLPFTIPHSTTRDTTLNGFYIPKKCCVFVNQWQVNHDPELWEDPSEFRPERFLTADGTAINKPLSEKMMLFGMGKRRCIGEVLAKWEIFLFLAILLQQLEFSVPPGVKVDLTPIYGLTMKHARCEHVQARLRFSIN
Description: (§3) In Vitro CYP450 Reaction Phenotyping Study in Supersomes™ Over-Expressing Human CYP Enzymes The CYPP450 enzymes involved in the Phase I metabolism of Compound 1 Form A were investigated in vitro. […] No evidence of Compound 1 metabolism by CYP2B6, CYP2C8, CYP2C9 and CYP2C19 was observed.

CYP2D6 [2] = molecular target: T5, CYP2D6 (Homo sapiens, UniProt P10635); assay: CYP450 reaction phenotyping in Supersomes, CYP2D6
T5 construct: purchased
Description: as §3

CYP3A4 [3] = molecular target: T6, CYP3A4 (Homo sapiens, UniProt P08684); assay: CYP450 reaction phenotyping in Supersomes, CYP3A4
T6 construct: purchased
Description: as §3

CYP1A2 [4] = molecular target: T4, CYP1A2; assay: CYP inhibition in human liver microsomes, CYP1A2
Description: (§4) In Vitro CYP Inhibition of CYP1A2, CYP2C8, CYP2C9, CYP2C19, CYP2D6 and CYP3A4 in Human Liver Microsomes This study assessed the potential inhibitory effect of Compound 1 Form A toward CYP1A2, CYP2C8, CYP2C9, CYP2C19, CYP2D6 and CYP3A4. Known inhibitors of each CYP were used as positive controls.

CYP2C8 = molecular target: T7, CYP2C8 (Homo sapiens, UniProt P10632); assay: CYP inhibition in human liver microsomes, CYP2C8
T7 construct: purchased
Description: as §4

CYP2C9 = molecular target: T8, CYP2C9 (Homo sapiens, UniProt P11712); assay: CYP inhibition in human liver microsomes, CYP2C9
T8 construct: purchased
Description: as §4

CYP2D6 [5] = molecular target: T5, CYP2D6; assay: CYP inhibition in human liver microsomes, CYP2D6
Description: as §4

CYP3A4 [6] = molecular target: T6, CYP3A4; assay: CYP inhibition in human liver microsomes, CYP3A4
Description: as §4

CYP3A4 [7] = molecular target: T6, CYP3A4; assay: Metabolism dependent inhibition in human liver microsomes, CYP3A4
Description: (§5) In Vitro Metabolite Dependent Inhibition of CYP2D6 and CYP3A4 Study in Human Liver Microsomes
(§6) This study assessed the metabolism dependent inhibition potential of Compound 1 Form A toward CYP3A4 and CYP2D6 in human liver microsomes. Troleandomycin and paroxetine, known metabolism dependent inhibitors of CYP3A4 and CYP2D6, respectively were used as positive controls.

CYP2D6 [8] = molecular target: T5, CYP2D6; assay: Metabolism dependent inhibition in human liver microsomes, CYP2D6
Description: as §5, §6

CYP2C19 = CYP2C19 (Homo sapiens, UniProt P33261); assay: CYP inhibition in human liver microsomes, CYP2C19; set-up: CYP2D6 and CYP3A4 in Human Liver Microsomes; from tissue; host or cells: human liver microsomes
Description: as §4

T5 sequence (P10635 whole entry): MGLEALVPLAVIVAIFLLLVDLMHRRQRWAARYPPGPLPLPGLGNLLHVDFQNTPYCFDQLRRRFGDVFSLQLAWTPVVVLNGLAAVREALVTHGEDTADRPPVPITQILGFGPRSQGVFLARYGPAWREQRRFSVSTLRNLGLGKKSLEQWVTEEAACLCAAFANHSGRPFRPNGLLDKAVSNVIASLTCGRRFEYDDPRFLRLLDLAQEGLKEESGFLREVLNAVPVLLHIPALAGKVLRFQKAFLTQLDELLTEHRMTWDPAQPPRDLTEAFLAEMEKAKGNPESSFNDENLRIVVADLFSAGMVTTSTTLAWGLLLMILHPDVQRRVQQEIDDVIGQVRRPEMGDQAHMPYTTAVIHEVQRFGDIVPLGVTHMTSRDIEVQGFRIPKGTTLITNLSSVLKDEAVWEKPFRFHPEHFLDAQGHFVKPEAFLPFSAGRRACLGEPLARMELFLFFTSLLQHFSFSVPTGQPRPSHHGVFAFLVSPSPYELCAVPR
T6 sequence (P08684 whole entry): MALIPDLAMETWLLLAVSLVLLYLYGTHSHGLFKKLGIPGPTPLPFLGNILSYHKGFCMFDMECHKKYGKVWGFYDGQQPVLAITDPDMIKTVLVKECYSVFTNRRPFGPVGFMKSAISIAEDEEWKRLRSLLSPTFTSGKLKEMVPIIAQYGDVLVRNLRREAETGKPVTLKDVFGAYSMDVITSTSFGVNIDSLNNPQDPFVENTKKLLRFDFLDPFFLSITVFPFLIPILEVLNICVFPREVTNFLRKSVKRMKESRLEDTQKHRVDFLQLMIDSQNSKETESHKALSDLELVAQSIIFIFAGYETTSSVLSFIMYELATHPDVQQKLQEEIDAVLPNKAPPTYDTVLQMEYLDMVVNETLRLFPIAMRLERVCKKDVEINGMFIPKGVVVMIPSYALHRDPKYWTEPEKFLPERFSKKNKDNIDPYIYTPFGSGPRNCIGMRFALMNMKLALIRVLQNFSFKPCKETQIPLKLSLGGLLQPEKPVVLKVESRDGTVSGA
T3 sequence (Q9NPD5 whole entry): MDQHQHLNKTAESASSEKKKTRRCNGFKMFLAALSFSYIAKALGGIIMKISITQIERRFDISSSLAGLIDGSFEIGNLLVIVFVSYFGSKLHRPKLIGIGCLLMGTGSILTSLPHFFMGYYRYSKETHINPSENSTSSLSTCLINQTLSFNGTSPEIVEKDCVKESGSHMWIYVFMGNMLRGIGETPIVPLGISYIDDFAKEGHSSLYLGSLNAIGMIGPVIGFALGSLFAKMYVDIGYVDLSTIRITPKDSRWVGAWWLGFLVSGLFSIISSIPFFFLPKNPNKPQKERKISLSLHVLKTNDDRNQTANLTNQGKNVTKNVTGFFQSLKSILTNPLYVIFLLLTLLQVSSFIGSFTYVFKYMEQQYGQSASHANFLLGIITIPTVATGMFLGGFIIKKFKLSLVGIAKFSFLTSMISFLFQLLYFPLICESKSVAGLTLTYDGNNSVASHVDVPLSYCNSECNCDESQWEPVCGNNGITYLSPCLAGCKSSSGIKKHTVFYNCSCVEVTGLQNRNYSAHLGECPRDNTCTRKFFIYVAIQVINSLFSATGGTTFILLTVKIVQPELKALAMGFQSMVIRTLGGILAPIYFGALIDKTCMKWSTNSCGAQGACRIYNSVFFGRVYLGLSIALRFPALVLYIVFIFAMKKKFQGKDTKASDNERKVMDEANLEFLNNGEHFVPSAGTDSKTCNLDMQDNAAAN
T7 sequence (P10632 whole entry): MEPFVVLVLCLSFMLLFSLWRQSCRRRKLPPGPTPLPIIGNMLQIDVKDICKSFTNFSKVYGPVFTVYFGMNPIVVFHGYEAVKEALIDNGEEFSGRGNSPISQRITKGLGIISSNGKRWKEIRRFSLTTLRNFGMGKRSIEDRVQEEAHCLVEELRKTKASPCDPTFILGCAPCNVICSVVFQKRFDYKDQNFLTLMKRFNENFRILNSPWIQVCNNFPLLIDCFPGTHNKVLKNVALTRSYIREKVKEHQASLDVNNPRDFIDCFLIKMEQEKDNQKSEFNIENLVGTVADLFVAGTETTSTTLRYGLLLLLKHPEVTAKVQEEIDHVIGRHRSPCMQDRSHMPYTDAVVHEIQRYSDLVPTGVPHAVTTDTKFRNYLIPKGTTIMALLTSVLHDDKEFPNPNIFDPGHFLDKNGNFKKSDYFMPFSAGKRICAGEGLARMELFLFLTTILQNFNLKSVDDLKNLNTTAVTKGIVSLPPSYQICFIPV
T1 sequence (P08183 whole entry): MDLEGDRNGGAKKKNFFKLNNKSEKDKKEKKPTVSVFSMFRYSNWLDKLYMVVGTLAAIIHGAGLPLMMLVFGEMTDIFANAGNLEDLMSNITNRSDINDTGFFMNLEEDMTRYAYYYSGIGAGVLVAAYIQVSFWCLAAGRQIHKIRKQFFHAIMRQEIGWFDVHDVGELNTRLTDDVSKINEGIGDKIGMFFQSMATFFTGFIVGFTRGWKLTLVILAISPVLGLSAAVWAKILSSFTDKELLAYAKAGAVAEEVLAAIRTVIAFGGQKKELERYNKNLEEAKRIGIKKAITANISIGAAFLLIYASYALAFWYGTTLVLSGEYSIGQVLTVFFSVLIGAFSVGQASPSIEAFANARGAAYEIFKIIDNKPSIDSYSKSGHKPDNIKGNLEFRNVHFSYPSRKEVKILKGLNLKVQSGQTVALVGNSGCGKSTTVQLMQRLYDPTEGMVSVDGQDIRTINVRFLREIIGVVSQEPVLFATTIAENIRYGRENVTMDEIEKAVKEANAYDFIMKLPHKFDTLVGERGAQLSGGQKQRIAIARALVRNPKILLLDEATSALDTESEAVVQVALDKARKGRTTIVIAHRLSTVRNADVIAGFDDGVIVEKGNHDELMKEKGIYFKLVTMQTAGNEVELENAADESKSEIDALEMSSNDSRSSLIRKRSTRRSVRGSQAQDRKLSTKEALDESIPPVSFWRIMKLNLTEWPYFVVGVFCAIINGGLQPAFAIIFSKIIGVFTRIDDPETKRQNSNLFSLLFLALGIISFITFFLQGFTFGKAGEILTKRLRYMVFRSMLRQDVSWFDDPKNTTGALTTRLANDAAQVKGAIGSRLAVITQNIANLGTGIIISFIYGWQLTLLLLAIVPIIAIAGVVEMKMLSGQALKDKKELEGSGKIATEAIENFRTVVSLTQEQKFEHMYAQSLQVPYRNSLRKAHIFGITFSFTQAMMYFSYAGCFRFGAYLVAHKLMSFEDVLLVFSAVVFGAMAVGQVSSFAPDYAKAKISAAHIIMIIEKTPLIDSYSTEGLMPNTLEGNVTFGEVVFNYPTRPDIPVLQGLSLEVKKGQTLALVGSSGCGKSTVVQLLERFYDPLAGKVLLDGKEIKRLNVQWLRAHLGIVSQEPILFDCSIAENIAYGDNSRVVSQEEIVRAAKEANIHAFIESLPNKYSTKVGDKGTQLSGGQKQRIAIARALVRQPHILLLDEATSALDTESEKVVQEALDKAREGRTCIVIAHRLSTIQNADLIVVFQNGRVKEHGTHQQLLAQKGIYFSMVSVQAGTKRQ
T2 sequence (Q9Y6L6 whole entry): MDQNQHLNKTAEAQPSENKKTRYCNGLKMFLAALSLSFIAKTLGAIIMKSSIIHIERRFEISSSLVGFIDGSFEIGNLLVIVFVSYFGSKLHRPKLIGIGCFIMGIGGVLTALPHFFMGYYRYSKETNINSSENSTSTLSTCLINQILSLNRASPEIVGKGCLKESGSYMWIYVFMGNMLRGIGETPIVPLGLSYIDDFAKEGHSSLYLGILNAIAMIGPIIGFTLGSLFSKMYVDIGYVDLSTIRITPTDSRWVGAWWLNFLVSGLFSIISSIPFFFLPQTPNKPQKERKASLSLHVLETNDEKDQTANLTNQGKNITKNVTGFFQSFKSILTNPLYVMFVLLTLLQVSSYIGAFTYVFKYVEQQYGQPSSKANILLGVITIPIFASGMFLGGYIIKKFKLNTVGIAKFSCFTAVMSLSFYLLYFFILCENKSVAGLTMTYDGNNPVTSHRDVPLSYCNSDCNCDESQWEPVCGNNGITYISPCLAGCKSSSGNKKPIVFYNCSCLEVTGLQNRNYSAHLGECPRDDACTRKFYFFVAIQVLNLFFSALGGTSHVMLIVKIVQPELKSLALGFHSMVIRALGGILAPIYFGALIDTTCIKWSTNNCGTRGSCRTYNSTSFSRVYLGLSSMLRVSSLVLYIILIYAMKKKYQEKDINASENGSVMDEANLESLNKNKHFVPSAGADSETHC
Chain of CYP2C19 (P33261 whole entry): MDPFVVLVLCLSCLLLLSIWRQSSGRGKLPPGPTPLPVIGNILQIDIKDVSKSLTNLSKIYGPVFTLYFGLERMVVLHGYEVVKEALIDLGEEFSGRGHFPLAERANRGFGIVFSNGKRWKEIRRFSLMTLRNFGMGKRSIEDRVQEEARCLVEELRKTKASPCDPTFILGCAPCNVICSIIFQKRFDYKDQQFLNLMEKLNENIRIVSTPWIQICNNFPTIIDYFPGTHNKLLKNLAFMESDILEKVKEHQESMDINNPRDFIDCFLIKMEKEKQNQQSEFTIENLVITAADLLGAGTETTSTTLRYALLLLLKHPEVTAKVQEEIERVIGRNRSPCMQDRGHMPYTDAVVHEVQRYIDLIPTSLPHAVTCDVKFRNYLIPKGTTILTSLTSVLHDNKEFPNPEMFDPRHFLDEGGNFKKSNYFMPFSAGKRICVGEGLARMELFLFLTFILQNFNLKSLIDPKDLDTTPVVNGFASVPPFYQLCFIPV

Question: `O=C1N[C@H](c2cncc(C#Cc3ccccc3)c2)[C@@H](c2ccccc2Cl)O1` [Compound 1 Form A, (4R,5R)-5-(2-chlorophenyl)-4-(5-(phenylethynyl)pyridin-3-yl)oxazolidin-2-one] was tested. Which IC50 (P-glycoprotein (P-gp)) did it give?
Answer: Its IC50 is 27.7 µM.

Question: What about the IC50 (OATP1B1) of the same compound?
Answer: The IC50 was 6.74 µM.

Question: What about the IC50 (OATP1B3) of the same compound?
Answer: The IC50 was 32 µM.

Question: And the IC50 (BSEP)?
Answer: The IC50 was 13.9 µM.

Question: And the “predicted contribution to total metabolism” value (from here on “predicted contribution”) (CYP1A2 [1]; CYP1A2, relative activity of factors method)?
Answer: Its value is 43.1%.

Question: And the CLint (CYP1A2 [1]; Supersomes, CYP1A2)?
Answer: Its CLint is 0.261 μL/min/pmol CYP.

Question: And the half-life (CYP1A2 [1]; human, Supersomes over-expressing human CYP1A2, Supersomes, CYP1A2)?
Answer: Its half-life is 1.07 h.

Question: And the “predicted contribution” value (CYP2D6 [2]; CYP2D6, relative activity of factors method)?
Answer: Its value is 18%.

Question: What about the CLint (CYP2D6 [2]; Supersomes, CYP2D6) of the same compound?
Answer: Its CLint is 0.984 μL/min/pmol CYP.

Question: And the half-life (CYP2D6 [2]; human, Supersomes over-expressing human CYP2D6, Supersomes, CYP2D6)?
Answer: Its half-life is 0.233 h.

Question: And the “predicted contribution” value (CYP3A4 [3]; CYP3A4, relative activity of factors method)?
Answer: Its value is 38.9%.

Question: What about the CLint (CYP3A4 [3]; Supersomes, CYP3A4) of the same compound?
Answer: The CLint was 0.0786 μL/min/pmol CYP.

Question: And the half-life (CYP3A4 [3]; human, Supersomes over-expressing human CYP3A4, Supersomes, CYP3A4)?
Answer: The half-life was 2.93 h.

Question: And the IC50 (CYP1A2 [4])?
Answer: The IC50 was 1.95 µM.

Question: What about the IC50 (CYP2C8) of the same compound?
Answer: Its IC50 is 52.1 µM.

Question: What about the IC50 (CYP2C9) of the same compound?
Answer: The IC50 was 12.4 µM.

Question: What about the “inhibition of CYP2D6” value (CYP2D6 [5]) of the same compound?
Answer: The value was “no inhibition”.

Question: What about the IC50 (CYP3A4 [6]; atorvastatin only) of the same compound?
Answer: Its IC50 is 55.7 µM.

Question: And the “inhibition of CYP3A4” value (CYP3A4 [6]; midazolam as substrate)?
Answer: Its value is “no inhibition”.

Question: And the “inhibition of CYP3A4” value (CYP3A4 [6]; nifedipine as substrate)?
Answer: The value was “no inhibition”.

Question: And the “metabolism dependent inhibition of CYP3A4” value (CYP3A4 [7])?
Answer: Its value is “not a metabolism dependent inhibitor”.

Question: What about the “metabolism dependent inhibition of CYP2D6” value (CYP2D6 [8]) of the same compound?
Answer: The value was “not a metabolism dependent inhibitor”.

Question: What about the IC50 (CYP2C19) of the same compound?
Answer: Its IC50 is 6.17 µM.
